Our source for the maximum tolerated dose and IC50 values is patent US10526294B2, “Pyrrolobenzodiazepines and conjugates thereof” (priority 2016, dated 2020).

SMILES strings stand for the structures.

For series [1] the following is noted: Phase I clinical evaluation; cited from earlier work.
Series [2] concerns MCF7 cells. In words: Cell viability assay (CellTiter-Glo), MCF7. The class given is cell-based. The note with it: Homo sapiens, conjugates (Table II), HER2 low expressing levels cells, 72 h. The protocol:
(§1) Cell Viability Assay for Antibody-Polymer-Drug Conjugates.
(§2) PBD compounds and conjugates thereof were evaluated for their antiproliferation properties in tumor cell lines in vitro using CellTiter-Glo® (Promega Corp). Cells were plated in black walled 96-well plate and allowed to adhere overnight at 37° C. in a humidified atmosphere of 5% CO2. BT474, SKBR3, NCI-N87 cells (HER2 expressing cells), JIMT1 cells (HER2 medium expression level cells) and MCF7 cells (HER2 low expressing levels cells) and were plated at a density of 5,000 cells per well. The next day the medium was replaced with 50 μL fresh medium and 50 μL of 2× stocks of PBD compounds or antibody-PBD conjugate were added to appropriate wells, mixed and incubated for 72 h. CellTiter-Glo® reagent was added to the wells at room temperature and the luminescent signal was measured after 10 min using a SpectraMax M5 plate reader (Molecular Devices). Dose response curves were generated using SoftMax Pro software. IC50 values were determined from four-parameter curve fitting.

Series [3] relates to NCI-N87 cells. As to the kind of experiment: Cell viability assay (CellTiter-Glo), NCI-N87. It is filed as cell-based. To be noted: Homo sapiens, conjugates (Table II), HER2 expressing cells, 72 h. The protocol:
as §1, §2
For orientation: Cellular ATP, detected with luciferase, serves as a proxy for viable cell number.

Series [4] has as its system JIMT1 cells. As to the kind of experiment: Cell viability assay (CellTiter-Glo), JIMT1. It is filed as cell-based. The note with it: Homo sapiens, JIMT-1; conjugates (Table II); HER2 medium expression level cells; 72 h. The protocol: as §1, §2
Series [5] relates to BT474 cells. In words: Cell viability assay (CellTiter-Glo), BT474. The class given is cell-based. The note with it: Homo sapiens, BT-474; conjugates (Table II); HER2 expressing cells; 72 h. Here is the method: as §1, §2
Series [6] concerns SKBR3 cells. As to the kind of experiment: Cell viability assay (CellTiter-Glo), SKBR3. It is filed as cell-based. The note with it: Homo sapiens, SK-BR-3; conjugates (Table II); HER2 expressing cells; 72 h. The protocol: as §1, §2

Regarding `C=C1C[C@H]2C=Nc3cc(OCCCOc4cc5c(cc4OC)C(=O)N4CC(=C)C[C@H]4C=N5)c(OC)cc3C(=O)N2C1` [SJG-136], in series [1], the maximum tolerated dose is recorded as 45 μg/m^2.

As usually defined, the IC50 is the concentration needed to halve the response being measured. In the case of `C=C1C[C@H]2C=Nc3cc(OCCCC(=O)Nc4cn(C)c(C(=O)Nc5ccc(-c6nc7cc(OC)ccc7[nH]6)cc5)n4)c(OC)cc3C(=O)N2C1` [Compound 106, (S,Z)—N-(4-(5-methoxy-1H-benzo[d]imidazol-2-yl)phenyl)-4-(4-(7-methoxy-2-methylene-5-oxo-2,3,5,11a-tetrahydro-1H-benzo[e]pyrrolo[1,2-a][1,4]diazepin-8-yloxy)butanamido)-1-methyl-1H-imidazole-2-carboxamide], the IC50 amounted to 0.84 nM in series [2]; 0.21 nM in series [3]; 0.17 nM in series [4]; 0.73 nM in series [5]; 0.13 nM in series [6].
